From patent US12479879B2, “Method for preparing disodium 5′-guanylate heptahydrate crystal” (CJ CHEILJEDANG CORPORATION, priority 2019, dated 2025)
Converted amounts (≈) assume the structure as drawn.

Test: Solubility of 5′-guanylic acid in aqueous sodium chloride solutions (saturated mixed solution, supernatant concentration)
Details: for Concentration of 5′-Guanylic acid in mixed solution: 25° C.; for 5′-Guanylic acid concentration (g/L) in mixed solution: 40° C.; for solubility thermodynamic: aqueous sodium chloride solution, saline or isotonic
[1] = sodium chloride concentration 300 g/L, supernatant of saturated solution
[2] = sodium chloride concentration 310 g/L, supernatant of saturated solution
[3] = sodium chloride concentration 350 g/L, supernatant of saturated solution
[4] = sodium chloride concentration 360 g/L, supernatant of saturated solution
[5] = sodium chloride concentration 400 g/L, sodium chloride crystals precipitated

Method: With the aqueous 5′-guanylic acid solution added to different concentrations of aqueous sodium chloride solutions at temperature 40° C. and 25° C., the solubility of 5′-guanylic acid was examined.
Specifically, the aqueous 5′-guanylic acid solution was sufficiently dissolved in each of the aqueous sodium chloride solutions at 40° C. and 25° C., respectively, to prepare saturated solutions. As a result, 160 g/L to 360 g/L saturated solution of sodium chloride were prepared. […] Then, the concentrations (g/L) of 5′-guanylic acid in supernatants obtained by centrifuging each of the saturated solutions, i.e., the mixed solutions were measured.

Concentration of 5′-Guanylic acid in mixed solution [1]: 18100 µg/mL
Concentration of 5′-Guanylic acid in mixed solution [2]: 18200 µg/mL
Concentration of 5′-Guanylic acid in mixed solution [3]: 18200 µg/mL
Concentration of 5′-Guanylic acid in mixed solution [4]: 18200 µg/mL
Concentration of 5′-Guanylic acid in mixed solution [5]: 18300 µg/mL
5′-Guanylic acid concentration (g/L) in mixed solution [1]: 49.9 g/L
5′-Guanylic acid concentration (g/L) in mixed solution [2]: 49.5 g/L
5′-Guanylic acid concentration (g/L) in mixed solution [3]: 48.9 g/L
5′-Guanylic acid concentration (g/L) in mixed solution [4]: 49.8 g/L
5′-Guanylic acid concentration (g/L) in mixed solution [5]: 49.6 g/L
solubility thermodynamic (25 °C, Concentration of 5′-Guanylic acid in mixed solution (g/L), sodium chloride concentration 160 g/L, supernatant of saturated solution): 40.1 mg/mL (≈ 110 mM)
solubility thermodynamic (25 °C, Concentration of 5′-Guanylic acid in mixed solution (g/L), sodium chloride concentration 200 g/L, supernatant of saturated solution): 26.4 mg/mL (≈ 72.7 mM)
solubility thermodynamic (25 °C, Concentration of 5′-Guanylic acid in mixed solution (g/L), sodium chloride concentration 230 g/L, supernatant of saturated solution): 22.2 mg/mL (≈ 61.1 mM)
solubility thermodynamic (25 °C, Concentration of 5′-Guanylic acid in mixed solution (g/L), sodium chloride concentration 280 g/L, supernatant of saturated solution): 19.2 mg/mL (≈ 52.9 mM)
solubility thermodynamic (25 °C, Concentration of 5′-Guanylic acid in mixed solution (g/L), sodium chloride concentration 420 g/L, sodium chloride crystals precipitated): 18.2 mg/mL (≈ 50.1 mM)
solubility thermodynamic (40 °C, 5′-Guanylic acid concentration (g/L) in mixed solution, sodium chloride concentration 160 g/L, supernatant of saturated solution): 86.5 mg/mL (≈ 238 mM)
solubility thermodynamic (40 °C, 5′-Guanylic acid concentration (g/L) in mixed solution, sodium chloride concentration 200 g/L, supernatant of saturated solution): 62.7 mg/mL (≈ 173 mM)
solubility thermodynamic (40 °C, 5′-Guanylic acid concentration (g/L) in mixed solution, sodium chloride concentration 230 g/L, supernatant of saturated solution): 57.1 mg/mL (≈ 157 mM)
solubility thermodynamic (40 °C, 5′-Guanylic acid concentration (g/L) in mixed solution, sodium chloride concentration 280 g/L, supernatant of saturated solution): 50.1 mg/mL (≈ 138 mM)
solubility thermodynamic (40 °C, 5′-Guanylic acid concentration (g/L) in mixed solution, sodium chloride concentration higher than 400 g/L, sodium chloride crystals precipitated): 48.7 mg/mL (≈ 134 mM)
SMILES: Nc1nc2c(ncn2[C@@H]2O[C@H](COP(=O)(O)O)[C@@H](O)[C@H]2O)c(=O)[nH]1 [5′-Guanylic acid, 5′-guanylic acid]
